The subject of data set [1] is CD3+CD19+ T cells. Nature of the data set: In vitro exposure to AP1903 of patient CD3+CD19+ T cells 5 months after treatment. It counts as cell-based, human. The conditions noted are these: patient 2, FACS and quantitative PCR.
For data set [2] the following is noted: cited from earlier work.
Data set [3] deals with EBV-specific and CMV-specific T cells. Nature of the data set: Pentamer analysis of virus-specific T cells after AP20187 treatment of allostimulated cells. The settings on record: 3 weeks post transduction; 4 days allogeneic PBMC; 10 nM AP20187. It counts as cell-based, human. How it is done:
In some experiments, cells also were cultured for 3 weeks post transduction and stimulated with 30G-irradiated allogeneic PBMC at a responder:stimulator ratio of 1:1. After 4 days of co-culture, a portion of cells was treated with 10 nM AP20187. Killing was measured by annexin V/7-AAD staining at 24 hours, and the effect of dimerizer on bystander virus-specific T cells was assessed by pentamer analysis on AP20187-treated and untreated cells.
An observation of note was that many virus-specific T cells were spared when dimerizer was used to deplete gene-modified cells that have been re-activated with allogeneic PBMC, rather than by non-specific mitogenic stimuli. […] Gene-modified allodepleted cells were maintained in culture for 3 weeks post-transduction to allow transgene down-modulation. Cells were stimulated with allogeneic PBMC for 4 days, following which a portion was treated with 10 nM AP20187. The frequency of EBV-specific T cells (see FIG. 14A) and CMV-specific T cells (see FIG. 14B) were quantified by pentamer analysis before allostimulation, after allostimulation, and after treatment of allostimulated cells with dimerizer. The percentage of virus-specific T cells decreased after allostimulation. Following treatment with dimerizer, virus-specific T cells were partially and preferentially retained.

Data set [4] concerns iCasp9-ΔCD19-transduced MSCs. Nature of the data set: In vivo killing of iCasp9-transduced MSCs in SCID mice (luminescence imaging, qPCR). The arrangement: species or system mouse. (In general: Quantitative PCR measures a nucleic acid by following its amplification.)
Data set [5] relates to gene-modified allodepleted cells. As to the kind of experiment: Induction of apoptosis with AP20187 in gene-modified allodepleted cells (annexin V/7-AAD). It counts as cell-based, human. The method, then:
(§1) Suicide gene functionality was assessed by adding a small molecule synthetic homodimerizer, AP20187 (Ariad Pharmaceuticals; Cambridge, Mass.), at 10 nM final concentration the day following CD19 immunomagnetic selection. Cells were stained with annexin V and 7-amino-actinomycin (7-AAD)(BD Pharmingen) at 24 hours and analyzed by flow cytometry. Cells negative for both Annexin V and 7-AAD were considered viable, cells that were annexin V positive were apoptotic, and cells that were both annexin V and 7-AAD positive were necrotic. The percentage killing induced by dimerization was corrected for baseline viability as follows: Percentage killing=100%−(% Viability in AP20187-treated cells÷% Viability in nontreated cells).
Cells were maintained in T cell medium containing 50 U/ml IL-2 until 22 days after transduction. A portion of cells was reactivated on 24-well plates coated with […] OKT3 and 1 μg/ml anti-CD28 (Clone CD28.2, BD Pharmingen, San Jose, Calif.) for 48 to 72 hours. CD19 expression and suicide gene function in both reactivated and non-reactivated cells were measured on day 24 or 25 post transduction.

The test system of data set [6] is iCasp9M.IRES.GFPhigh-transduced CTLs. Nature of the data set: SCID mouse-human xenograft model: human CD3+/GFP+ T cells in tumors after CID. It counts as in vivo. The conditions noted are these: single dose of CID (50 μg AP20187 intraperitoneally); tumors analyzed three days later; versus carrier; listed as dimerizer. (A xenograft is tissue or cells of one species grown in another, often human tumour cells in immunodeficient mice.)

The subject of data set [7] is iCasp9-transduced MSCs. Nature of the data set: Apoptosis of undifferentiated iCasp9-transduced MSCs after CID (annexin V-PE/7-AAD FACS). The format is cell-based, human. How it is done:
Undifferentiated MSCs. The chemical inducer of dimerization (CID) (AP20187; ARIAD Pharmaceuticals, Cambridge, Mass.) was added at 50 nM to iCasp9-transduced MSCs cultures in complete medium. Apoptosis was evaluated 24 hours later by FACS analysis, after cell harvest and staining with annexin V-PE and 7-AAD in annexin V binding buffer (BD Biosciences, San Diego, Calif.). Control iCasp9-transduced MSCs were maintained in culture without exposure to CID.

The test system of data set [8] is iCasp9M.IRES.IL-12-transduced cells. As to the kind of experiment: IL-12 ELISA of culture supernatant of iCasp9M.IRES.IL-12-transduced EBV-CTLs after CID. The conditions noted are these: after 10 nM CID; detection limit 7.8 pg/mL. The format is cell-based, human.
Data set [9] has as its system non-transduced cells. As to the kind of experiment: Viability of non-transduced cells with AP20187. The conditions noted are these: non-transduced cells (n=6). The format is cell-based, human. The method, then:
as §1
The day following immunomagnetic selection, 10 nM of the chemical inducer of dimerization, AP20187, was added to induce apoptosis, which appeared within 24 hours. […] Killing efficiency after correction for baseline viability was about 92.9%±3.8%. Large-scale CD19 selection produced cells that were killed with similar efficiency as small-scale selection: mean viability with and without AP20187, and percentage killing, in large and small scale were about 3.9%, about 84.0%, about 95.4% (n=3) and about 6.6%, about 79.3%, about 91.4% (n=5) respectively. […]

The test system of data set [10] is F-Casp9M.I.GFPhigh-transduced T cells. Nature of the data set: Annexin-V/7-AAD staining and microscopy of F-Casp9M.I.GFPhigh-transduced T cells after CID. The format is cell-based, human. The settings on record: zVAD-fmk 100 μM for 1 hour prior to adding CID.
Setting [11] is: two injections of 50 μg of CID 24 hours apart, seven days after implantation.

Residues, ends and D or L forms follow the SMILES beside them. *: point of attachment. Cbz = O=C(OCc1ccccc1)*; CH2F = FC* Bounds are passed on as bounds.

As for `CC[C@H](C(=O)N1CCCC[C@H]1C(=O)O[C@H](CCc1ccc(OC)c(OC)c1)c1cccc(OCC(=O)NCCNC(=O)COc2cccc([C@@H](CCc3ccc(OC)c(OC)c3)OC(=O)[C@@H]3CCCCN3C(=O)[C@@H](CC)c3cc(OC)c(OC)c(OC)c3)c2)c1)c1cc(OC)c(OC)c(OC)c1` (relative stereo) [AP1903, 2-Piperidinecarboxylic acid, 1-[(2S)-1-oxo-2-(3,4,5-trimethoxyphenyl)butyl]-, 1,2-ethanediylbis[imino(2-oxo-2,1-ethanediyl)oxy-3,1-phenylene[(1R)-3-(3,4-dimethoxyphenyl)propylidene]]ester, [2S-[1(R*),2R[S[S*[1(R*),2R*]]]]]-(9Cl)], the “sensitivity of CD3+CD19+ cells to AP1903 in vitro” value in data set [1] is “retain sensitivity”. Further, the “mean Cmax / maximal plasma level” value in data set [2] (0.01-1.0 mg/kg dose range, IV infusion over 2 hours) was 10 to 1275 ng/mL. Further, the “plasma levels versus dose” value in data set [2] (0.01-1.0 mg/kg) is on record as “directly proportional to dose”. In data set [2] (1 volunteer at 1.0 mg/kg, 3 minutes after start of infusion, resolved after 32 minutes), the “adverse event considered possibly related to AP1903” value is listed as “vasodilatation”. Further, the serious adverse events entry in data set [2] (Phase 1 study in volunteers) was “No serious adverse events”. Moreover, the “incidence of adverse events” value in data set [2] (following each treatment, all mild in severity) is recorded as “very low”.
As to `CC[C@H](C(=O)N1CCCC[C@H]1C(=O)O[C@H](CCc1ccc(OC)c(OC)c1)c1cccc(OCC(=O)NCC(CNC(=O)COc2cccc([C@@H](CCc3ccc(OC)c(OC)c3)OC(=O)[C@@H]3CCCCN3C(=O)[C@@H](CC)c3cc(OC)c(OC)c(OC)c3)c2)CN(C)C)c1)c1cc(OC)c(OC)c(OC)c1` [AP20187], in [3], the “viral reactive subpopulations (HLA pentamers, EBV and CMV)” value is reported as “spares (and thereby enriches) viral reactive subpopulations”. The “killing / depletion of iCasp9-positive cells (qPCR)” value in data set [4] (1:1 mixture of doubly and singly transduced MSCs, two doses of CID) is listed as > 99%. In addition, the “proportion of surviving iCasp9-positive cells” value in data set [4] (mouse, in vivo) was 0.7 % of the original population. Besides, in data set [4] (setting [11]), the “luminescence signal of MSCs transduced with iCasp9” value was “quickly killed” and the “luminescence signal of cells negative for iCasp9” value is on record as “not affected”. Also, the cells remaining viable result in data set [5] (10 nM AP20187, day after CD19 selection, 24 hours) is given as “about 5.5%±2.5%”. The “apoptosis / elimination of iCasp9-modified T cells after dimerizer (summary statements)” value in [5] (listed as small-molecule dimerizer) is > 90%. Further, the “reduction in the number of human CD3+/GFP+ T cells” value in [6] is reported as “more than 99%”. Further, the “annexin positive, iCasp9-CD19-positive cells (iCasp pos/CID)” value in data set [7] (50 nM CID, 24 hours, FACS example) is “Ninety-three”. For the same compound, the “selected cells apoptotic after exposure to CID” value in data set [7] (magnetic immunoselection of iCasp9-CD19-positive cells) is given as “More than 95%”. Moreover, the “IL-12 in the supernatant” value in data set [8] was < 7.8 pg/mL. In addition, the “viability with AP20187” value in [9] was “about 86%±9%”.
`COC(=O)C[C@H](NC(=O)[C@H](C)NC(=O)[C@@H](NC(=O)OCc1ccccc1)C(C)C)C(=O)CF` [zVAD-fmk] (Cbz-Val-Ala-Asp(OMe)-CH2F): the CID-induced apoptosis entry in [10] is “inhibited”.

The values above are taken from US9393292B2, “Methods for inducing selective apoptosis” (priority 2010, dated 2016).
